Numbered stars: 1 amine (or outer) side, 2 acyl side, 3 side chain; on linkers, the order of the positions; unused ones are H or OH. Bridge positions count the residues as written; N and C are the ends. Square brackets hold non-standard residues; d marks the D form. Peptide text beside a SMILES is read from it. X12 = NC(=O)CC[C@@H](N[*:1])C(=O)C[C@@H](Cc1cnc[nH]1)C(=O)[*:2]; X13 = O=C(/C=N/OCCCCCCOC1=CC(C[*:3])=CC(C[*:2])C1)[*:1]; X3 = O=C(/C=N/OCCCCCCOc1cc(C[*:2])cc(C[*:3])c1)[*:1]; X5 = O=C(CCCCCCOc1cc(C[*:2])cc(C[*:3])c1)[*:1]; X7 = O=C(/C=N\OCc1cc(C[*:2])cc(C[*:3])c1)[*:1]; tBuAla = CC(C)(C)C[C@H](N)C(=O)O; hSer = N[C@@H](CCO)C(=O)O; Nle = CCCC[C@H](N)C(=O)O
What follows are compounds tested against T1, rh-integrin α4β7/LPAM-1 (Homo sapiens, UniProt P13612+P26010) (assay: α4β7-MadCAM Competition ELISA (Example 4)). Conditions: IC50, Table 3 Representative compounds; inhibition of MAdCAM binding to coated α4β7.
T1 sequence (P13612 34-977 limits assumed): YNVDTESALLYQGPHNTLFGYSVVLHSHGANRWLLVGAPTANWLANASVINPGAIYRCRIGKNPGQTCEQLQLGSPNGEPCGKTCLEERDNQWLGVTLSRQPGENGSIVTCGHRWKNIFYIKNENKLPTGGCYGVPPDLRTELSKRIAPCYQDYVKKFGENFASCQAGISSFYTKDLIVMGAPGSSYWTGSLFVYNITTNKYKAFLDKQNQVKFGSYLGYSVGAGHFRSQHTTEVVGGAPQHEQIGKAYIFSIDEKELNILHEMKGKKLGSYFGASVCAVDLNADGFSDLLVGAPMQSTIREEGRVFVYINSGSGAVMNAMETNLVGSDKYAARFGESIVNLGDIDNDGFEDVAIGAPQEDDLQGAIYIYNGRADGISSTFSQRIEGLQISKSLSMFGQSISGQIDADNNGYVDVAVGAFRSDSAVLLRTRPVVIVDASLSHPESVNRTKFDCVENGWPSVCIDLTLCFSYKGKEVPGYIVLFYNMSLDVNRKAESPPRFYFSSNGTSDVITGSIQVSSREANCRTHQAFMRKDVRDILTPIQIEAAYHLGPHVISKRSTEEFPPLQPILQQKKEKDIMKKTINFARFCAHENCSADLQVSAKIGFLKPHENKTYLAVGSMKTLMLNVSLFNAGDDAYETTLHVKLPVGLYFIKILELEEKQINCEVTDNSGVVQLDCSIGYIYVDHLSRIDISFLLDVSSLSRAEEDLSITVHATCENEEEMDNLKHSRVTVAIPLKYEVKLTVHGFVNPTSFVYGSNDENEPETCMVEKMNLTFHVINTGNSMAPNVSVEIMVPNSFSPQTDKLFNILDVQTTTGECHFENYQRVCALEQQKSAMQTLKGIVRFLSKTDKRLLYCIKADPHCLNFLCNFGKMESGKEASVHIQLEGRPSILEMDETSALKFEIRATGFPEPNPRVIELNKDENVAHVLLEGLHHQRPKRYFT
T1 sequence (P26010 20-723 limits assumed): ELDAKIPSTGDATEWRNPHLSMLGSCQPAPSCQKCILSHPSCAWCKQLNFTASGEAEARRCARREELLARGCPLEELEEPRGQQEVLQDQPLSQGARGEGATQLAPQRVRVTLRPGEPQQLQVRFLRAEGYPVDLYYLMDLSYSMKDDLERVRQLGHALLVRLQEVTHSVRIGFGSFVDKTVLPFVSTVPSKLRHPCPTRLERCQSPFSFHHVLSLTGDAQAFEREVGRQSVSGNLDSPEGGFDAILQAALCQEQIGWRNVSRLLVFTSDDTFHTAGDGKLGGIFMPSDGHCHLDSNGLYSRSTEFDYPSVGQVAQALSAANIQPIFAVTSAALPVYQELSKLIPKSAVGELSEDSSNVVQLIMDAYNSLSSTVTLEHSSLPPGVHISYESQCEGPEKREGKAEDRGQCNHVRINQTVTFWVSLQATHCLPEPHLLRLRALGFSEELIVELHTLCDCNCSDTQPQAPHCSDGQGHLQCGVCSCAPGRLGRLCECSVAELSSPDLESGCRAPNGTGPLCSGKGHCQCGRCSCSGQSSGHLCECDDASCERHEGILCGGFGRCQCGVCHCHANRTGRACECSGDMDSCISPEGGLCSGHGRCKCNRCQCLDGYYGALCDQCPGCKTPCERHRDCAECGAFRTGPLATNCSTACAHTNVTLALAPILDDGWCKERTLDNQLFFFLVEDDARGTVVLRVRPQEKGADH
Assay type: binding
Procedure: After washing with wash buffer, 200 μL assay buffer was added to each well and incubated for one hour at 28° C. After another wash with wash buffer, 100 μL of a MAdCAM and peptide mixture in assay buffer was added to each well and incubated for one hour at 28° C., followed by washing with wash buffer.
With `CC[C@H](C)[C@@H]1NC(=O)[C@H]([C@@H](C)O)NC(=O)[C@H](CC(=O)O)NC(=O)[C@H](CO)NC(=O)[C@H](CCCNC(=N)N)NC(=O)[C@@H]2CSCc3cc(cc(c3)CSC[C@@H](C(N)=O)NC1=O)CO/N=C\C(=O)N[C@@H](C)C(=O)N2` [compound 94, TSL1- SACRSDTLC] (ACRSDTIC-NH2; linker N-2-8 via X7) the IC50 was 111000 nM.

Same assay, conditions: Table 3 Representative compounds; inhibition of MAdCAM binding to coated α4β7; read-out: IC50
Compound `CC[C@H](C)[C@@H]1NC(=O)[C@H](CC(=O)O)NC(=O)[C@H](CC(C)C)NC(=O)[C@@H]2CSCc3cc(cc(c3)OCCCCCCO/N=C/C(=O)N[C@@H](CCCNC(=N)N)C(=O)N2)CSC[C@@H](C(N)=O)NC(=O)[C@H](CC(=O)O)NC(=O)[C@H](Cc2ccc(O)cc2)NC(=O)[C@H]([C@@H](C)O)NC1=O` [compound 92, TSL6- SRCLDIMYDC] (RCLDITYDC-NH2; linker N-2-9 via X3) has an IC50 of 100000 nM.
Compound `CC(C)C[C@@H]1NC(=O)[C@@H]2CCCN2C(=O)[C@@H](NC(=O)[C@H](CCCCN)NC(=O)[C@@H](N)CO)CSSC[C@@H](C(N)=O)NC(=O)[C@H](CO)NC(=O)[C@@H]2CCCN2C(=O)[C@H](C(C)C)NC(=O)[C@H](CC(=O)O)NC1=O` [compound 41] (H-SKCPLDVPSC-NH2; disulfide 3-10) has an IC50 of 1300 nM.
For `CC(C)C[C@@H]1NC(=O)[C@@H]2CCCN2C(=O)[C@@H]2CSCc3cc(cc(c3)OCCCCCCO/N=C/C(=O)N[C@@H](CCCCN)C(=O)N2)CSC[C@@H](C(N)=O)NC(=O)[C@H](CCC(=O)O)NC(=O)[C@H](C)NC(=O)[C@@H]2CCCN2C(=O)[C@H]([C@@H](C)O)NC(=O)[C@H](CC(=O)O)NC1=O` [compound 35, TSL6- SKCPLDTPAEC] (KCPLDTPAEC-NH2; linker N-2-10 via X3), the IC50 was 796 nM.
`CCCC[C@@H]1NC(=O)[C@@H]2CCCN2C(=O)[C@@H]2CSCc3cc(cc(c3)OCCCCCCC(=O)NCC(=O)N[C@@H](CCCNC(=N)N)C(=O)N2)CSC[C@@H](C(N)=O)NC(=O)[C@H](CCC(=O)O)NC(=O)[C@H](CCC(N)=O)NC(=O)[C@H](Cc2c[nH]c3ccccc23)NC(=O)[C@H]([C@@H](C)CC)NC(=O)[C@H](CC(=O)O)NC1=O` [compound 4] (GRCP[Nle]DIWQEC-NH2; linker N-3-11 via X5) showed an IC50 of 75 nM.
`CC[C@H](C)[C@@H]1NC(=O)[C@H](CCCNC(=N)N)NC(=O)CNC(=O)[C@H](Cc2ccc(O)cc2)NC(=O)[C@H](Cc2c[nH]c3ccccc23)NC(=O)[C@H](Cc2c[nH]cn2)NC(=O)[C@@H]2CSCc3cc(cc(c3)OCCCCCCO/N=C/C(=O)N[C@@H](CC(N)=O)C(=O)N2)CSC[C@@H](C(N)=O)NC1=O` [compound 83, TSL6- SNCHWYGRIC] (NCHWYGRIC-NH2; linker N-2-9 via X3) was tested, and the IC50 was 63800 nM.
`CC[C@H](C)[C@@H]1NC(=O)/C=N/OCCCCCCOc2cc3cc(c2)CSC[C@H](NC1=O)C(=O)N[C@@H](Cc1ccc(O)cc1)C(=O)N1CCC[C@H]1C(=O)N[C@@H](CC(=O)O)C(=O)N[C@@H]([C@@H](C)O)C(=O)N[C@@H](Cc1ccc(O)cc1)C(=O)N[C@@H](Cc1cnc[nH]1)C(=O)N[C@H](C(N)=O)CSC3` [compound 91, TSL6- SICYPDTYHC] (ICYPDTYHC-NH2; linker N-2-9 via X3) was tested, and the IC50 was 93200 nM.
For `CC[C@H](C)[C@@H]1NC(=O)[C@H](CC(=O)O)NC(=O)[C@H](CCSC)NC(=O)[C@@H]2CCCN2C(=O)[C@@H]2CSCc3cc(cc(c3)OCCCCCCO/N=C/C(=O)N[C@@H](CCC(N)=O)C(=O)N2)CSC[C@@H](C(N)=O)NC(=O)[C@H](C)NC(=O)[C@@H]2CCCN2C1=O` [compound 46, TSL6- SQCPMDIPAC] (QCPMDIPAC-NH2; linker N-2-9 via X3), the IC50 was 1640 nM.
Compound `CCCC[C@@H]1NC(=O)[C@@H]2CCCN2C(=O)[C@@H]2CSCc3cc(cc(c3)OCCCCCCO/N=C/C(=O)N[C@@H](CCCNC(=N)N)C(=O)N2)CSC[C@@H](C(N)=O)NC(=O)[C@H](CCC(=O)O)NC(=O)[C@H](C)NC(=O)[C@H](C)NC(=O)[C@H]([C@@H](C)CC)NC(=O)[C@H](CC(=O)O)NC1=O` [compound 12] (RCP[Nle]DIAAEC-NH2; linker N-2-10 via X3) has an IC50 of 204 nM.
`CC(C)C[C@@H]1NC(=O)[C@@H]2CCCN2C(=O)[C@@H]2CSCc3cc(cc(c3)OCCCCCCO/N=C/C(=O)N[C@@H](CCCCN)C(=O)N2)CSC[C@@H](C(N)=O)NC(=O)[C@H](CCC(=O)O)NC(=O)[C@H]([C@@H](C)O)NC(=O)[C@@H]2CCCN2C(=O)[C@H]([C@@H](C)O)NC(=O)[C@H](CC(=O)O)NC1=O` [compound 34, TSL6- SKCPLDTPTEC] (KCPLDTPTEC-NH2; linker N-2-10 via X3) was tested, and the IC50 was 748 nM.
`CCCC[C@@H]1NC(=O)[C@@H]2CCCN2C(=O)[C@@H]2CSCc3cc(cc(c3)OCCCCCCO/N=C/C(=O)N[C@@H](CCCNC(=N)N)C(=O)N2)CSC[C@@H](C(N)=O)NC(=O)[C@H](CCC(=O)O)NC(=O)[C@H](Cc2ccc(O)cc2)NC(=O)[C@H](Cc2c[nH]c3ccccc23)NC(=O)[C@H](C(C)C)NC(=O)[C@H](CC(=O)O)NC1=O` [compound 6] (RCP[Nle]DVWYEC-NH2; linker N-2-10 via X3) gave an IC50 of 130 nM.
For `CCCC[C@@H]1NC(=O)[C@@H]2CCCN2C(=O)[C@@H]2CSCc3cc(cc(c3)OCCCCCCC(=O)NCC(=O)N[C@@H](C)C(=O)N2)CSC[C@@H](C(N)=O)NC(=O)[C@H](CCC(=O)O)NC(=O)[C@H](CCC(N)=O)NC(=O)[C@H](Cc2c[nH]c3ccccc23)NC(=O)[C@H](C(C)C)NC(=O)[C@H](CC(=O)O)NC1=O` (stereo in doubt) [compound 33, TSLC7- GACP{Nle} DVWQEC], the IC50 was 740 nM.
Compound `C[C@@H]1NC(=O)/C=N/OCCCCCCOC2=CC3=CC(CSC[C@H](NC1=O)C(=O)N[C@@H](C)C(=O)N[C@@H](Cc1c[nH]c4ccccc14)C(=O)N[C@@H](Cc1cnc[nH]1)C(=O)N[C@H](CCC(N)=O)C(=O)C[C@@H](Cc1cnc[nH]1)C(=O)N[C@@H](C)C(=O)N[C@H](C(N)=O)CSC3)C2` [compound 57, TSL6- SACAWHQHAC] (ACAWH[X12]AC-NH2; linker N-2-8 via X13) has an IC50 of 3890 nM.

Same assay, conditions: competition ELISA, 4 μg/mL α4β7 coated, MAdCAM and peptide mixture, 28° C.; read-out: IC50
`COCC[C@@H]1NC(=O)[C@@H]2CCCN2C(=O)[C@@H]2CSCc3cc(cc(c3)OCCCCCCC(=O)NCC(=O)N[C@@H](CCC(N)=O)C(=O)N2)CSC[C@@H](C(=O)O)NC(=O)[C@H](CCC(=O)O)NC(=O)[C@H](CCC(N)=O)NC(=O)[C@@H]2CCCN2C(=O)[C@H](CC(C)(C)C)NC(=O)[C@H](CC(=O)O)NC1=O` [SEQ ID NO: 89] (GQCP[hSer](Me)D[tBuAla]PQEC-OH; linker N-3-11 via X5; C-terminus assumed) gave an IC50 of 55900 nM.
With `CCCC[C@@H]1NC(=O)[C@@H]2CCCN2C(=O)[C@@H]2CSCc3cc(cc(c3)OCCCCCCC(=O)NCC(=O)N[C@@H](CCCNC(=N)N)C(=O)N2)CSC[C@@H](C(=O)O)NC(=O)[C@H](CCC(=O)O)NC(=O)[C@H](CCC(N)=O)NC(=O)[C@H](Cc2c[nH]c3ccccc23)NC(=O)[C@H]([C@@H](C)CC)NC(=O)[C@H](CC(=O)O)NC1=O` [SEQ ID NO: 147] (GRCP[Nle]DIWQEC-OH; linker N-3-11 via X5; C-terminus assumed) the IC50 was 75 nM.
For `CCCC[C@@H]1NC(=O)[C@H](CO)NC(=O)[C@H](CCCNC(=N)N)NC(=O)[C@@H]2CSCC(=O)N[C@@H](CCCNC(=N)N)C(=O)N[C@@H](CSSC[C@@H](C(=O)N[C@@H](Cc3c[nH]c4ccccc34)C(=O)N[C@@H](CCC(N)=O)C(N)=O)NC(=O)[C@H]([C@@H](C)CC)NC(=O)[C@H](CC(=O)O)NC1=O)C(=O)N[C@@H](CO)C(=O)N[C@@H](CCCC)C(=O)N[C@@H](CC(=O)O)C(=O)N[C@@H]([C@@H](C)CC)C(=O)N2` [SEQ ID NO: 76] ({CH2CO}-RCS[Nle]DICRS[Nle]DICWQ-NH2; disulfide 2-13; thioether N-7), the IC50 was 263000 nM.
